Assay results reported in ChEMBL document CHEMBL1133935, “A novel phosphotyrosine mimetic 4'-carboxymethyloxy-3'-phosphonophenylalanine (Cpp): exploitation in the design of nonpeptide inhibitors of pp60(Src) SH2 domain” (Bioorg Med Chem Lett, 2001).

How the values were obtained:
[1] = target: Tyrosine-protein kinase Yes (Homo sapiens, UniProt P07947); assay: Inhibition of binding to Yes SH2 domain
[2] = target: Proto-oncogene tyrosine-protein kinase Src (Homo sapiens, UniProt P12931); assay: Inhibition of binding to Src SH2 domain
[3] = target: T1, Tyrosine-protein kinase ZAP-70 (Homo sapiens, UniProt P43403); assay: Inhibition of binding to Zap70 protein kinase
T1 sequence (P43403 whole entry): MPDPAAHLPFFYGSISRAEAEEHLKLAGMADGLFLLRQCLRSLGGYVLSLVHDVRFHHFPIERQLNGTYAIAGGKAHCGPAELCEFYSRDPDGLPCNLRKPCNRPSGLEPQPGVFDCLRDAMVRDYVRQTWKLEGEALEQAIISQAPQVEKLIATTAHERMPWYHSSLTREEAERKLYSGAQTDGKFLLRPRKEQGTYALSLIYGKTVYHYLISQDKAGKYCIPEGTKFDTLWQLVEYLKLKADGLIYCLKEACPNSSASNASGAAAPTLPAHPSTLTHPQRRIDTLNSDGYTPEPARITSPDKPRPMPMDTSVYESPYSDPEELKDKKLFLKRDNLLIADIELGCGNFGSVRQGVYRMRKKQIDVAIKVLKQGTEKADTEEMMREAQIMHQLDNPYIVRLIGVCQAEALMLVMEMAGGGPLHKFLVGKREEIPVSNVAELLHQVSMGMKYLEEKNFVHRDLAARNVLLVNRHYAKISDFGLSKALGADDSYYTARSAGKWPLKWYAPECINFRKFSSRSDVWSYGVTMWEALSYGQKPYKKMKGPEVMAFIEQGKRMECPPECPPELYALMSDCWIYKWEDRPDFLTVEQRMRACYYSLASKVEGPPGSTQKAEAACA

[4] = organism: Oryctolagus cuniculus; assay: Inhibition of rabbit osteoclast-mediated resorption of dentine at 100 uM; 0-35% inhibition; type: functional

Tyrosine-protein kinase Yes, sequence (P07947 whole entry, the tested form may be a part): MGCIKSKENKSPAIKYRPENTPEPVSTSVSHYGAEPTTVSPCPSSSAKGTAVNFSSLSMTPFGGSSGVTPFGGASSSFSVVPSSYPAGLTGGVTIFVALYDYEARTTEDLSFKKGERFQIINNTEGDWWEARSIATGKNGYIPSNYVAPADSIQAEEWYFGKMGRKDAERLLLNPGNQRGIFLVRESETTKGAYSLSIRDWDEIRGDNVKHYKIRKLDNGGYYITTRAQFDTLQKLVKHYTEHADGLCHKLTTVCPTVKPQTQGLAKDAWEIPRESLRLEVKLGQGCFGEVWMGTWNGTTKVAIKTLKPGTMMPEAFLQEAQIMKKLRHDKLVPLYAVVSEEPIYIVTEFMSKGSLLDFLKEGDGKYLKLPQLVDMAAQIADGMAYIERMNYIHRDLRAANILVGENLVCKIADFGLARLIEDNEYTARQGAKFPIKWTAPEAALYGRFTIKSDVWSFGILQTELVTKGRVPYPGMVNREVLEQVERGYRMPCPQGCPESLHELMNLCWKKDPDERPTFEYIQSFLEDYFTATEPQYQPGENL
Proto-oncogene tyrosine-protein kinase Src, sequence (P12931 2-536 limits assumed): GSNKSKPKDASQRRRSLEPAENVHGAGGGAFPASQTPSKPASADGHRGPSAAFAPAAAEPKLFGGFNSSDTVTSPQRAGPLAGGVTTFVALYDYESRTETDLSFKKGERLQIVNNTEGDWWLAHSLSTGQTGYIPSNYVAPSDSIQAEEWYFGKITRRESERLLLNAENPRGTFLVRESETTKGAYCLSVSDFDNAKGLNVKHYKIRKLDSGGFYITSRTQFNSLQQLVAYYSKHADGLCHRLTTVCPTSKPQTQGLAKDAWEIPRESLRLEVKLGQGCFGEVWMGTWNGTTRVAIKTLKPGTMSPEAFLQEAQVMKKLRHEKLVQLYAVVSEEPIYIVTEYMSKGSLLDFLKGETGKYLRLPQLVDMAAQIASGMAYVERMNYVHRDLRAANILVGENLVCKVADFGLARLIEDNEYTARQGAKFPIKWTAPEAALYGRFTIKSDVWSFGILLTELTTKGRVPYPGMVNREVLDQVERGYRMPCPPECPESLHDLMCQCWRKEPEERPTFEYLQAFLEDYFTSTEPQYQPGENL

Row | Compound | IC50 [1] | IC50 [2] | IC50 [3] | Inhibition [4]
1 | CC(=O)NC(Cc1ccc(OCC(=O)O)c(P(=O)(O)O)c1)C(=O)NCc1ccc(OCC2CCCCC2)c(C(N)=O)c1 (centres undefined) | > 500 µM | 378 µM | > 500 µM | –
2 | CC(=O)NC(Cc1ccc(OCC(=O)O)c(P(=O)(O)O)c1)C(=O)NC(C)(C)c1ccc(OCC2CCCCC2)c(C(N)=O)c1 (centres undefined) | – | 3.2 µM | > 500 µM | –
3 | CC(=O)NC(Cc1ccc(OCC(=O)O)c(P(=O)(O)O)c1)C(=O)Nc1ccc(OCC2CCCCC2)c(C(N)=O)c1 (centres undefined) | > 500 µM | > 500 µM | > 500 µM | –
4 | CCOP(=O)(O)c1cc(CC(NC(C)=O)C(=O)N[C@@H](C)c2ccc(OCC3CCCCC3)c(C(N)=O)c2)ccc1OCC(=O)O (some centres undefined) | 156 µM | 7.3 µM | > 500 µM | –
5 | CC(C)(NC(=O)CCc1ccc(OCn2cnnn2)c(P(=O)(O)O)c1)c1ccc(OCC2CCCCC2)c(C(N)=O)c1 | > 500 µM | > 500 µM | > 500 µM | –
6 | CC(C)(NC(=O)CCc1ccc(OS(=O)(=O)C(F)(F)F)c(P(=O)(O)O)c1)c1ccc(OCC2CCCCC2)c(C(N)=O)c1 | > 500 µM | > 500 µM | > 500 µM | –
7 | CC(C)(NC(=O)CCc1ccc(OCC(=O)O)c(P(=O)(O)O)c1)c1ccc(OCC2CCCCC2)c(C(N)=O)c1 | 303 µM | 35.4 µM | > 500 µM | –
8 | CC(=O)NC(Cc1ccc(OCC(=O)O)cc1)C(=O)N[C@@H](C)c1ccc(OCC2CCCCC2)c(C(N)=O)c1 (some centres undefined) | > 500 µM | 370 µM | – | –
9 | CC(=O)NC(Cc1ccc(OCC(=O)O)c(P(=O)(O)O)c1)C(=O)N[C@@H](C)c1ccc(OCC2CCCCC2)c(C(N)=O)c1 (some centres undefined) | 110 µM | – | > 500 µM | 0%
10 | CC(C)(NC(=O)CCc1ccc(O)c(P(=O)(O)O)c1)c1ccc(OCC2CCCCC2)c(C(N)=O)c1 | > 500 µM | > 500 µM | > 500 µM | –
11 | CC(=O)NC(Cc1ccc(OP(=O)(O)O)cc1)C(=O)N[C@@H](C)c1ccc(OCC2CCCCC2)c(C(N)=O)c1 (some centres undefined) | – | – | 441 µM | –
